# Source: patent US20250352520A1, “USE OF DEXPRAMIPEXOLE FOR THE TREATMENT OF EOSINOPHILIC COPD” (Areteia Therapeutics, Inc., priority 2024, published 2025)
# Like-named read-outs stand apart in the source and are kept apart here.
# Legend:
# [1] = for SGRQ-C Questionnaire - Total Score, CFB (Change from baseline), Max / SGRQ-C Questionnaire - Total Score, CFB (Change from baseline), Mean ± SD / SGRQ-C Questionnaire - Total Score, CFB (Change from baseline), Median / SGRQ-C Questionnaire - Total Score, CFB (Change from baseline), Min / SGRQ-C Questionnaire - Total Score, CFB (Change from baseline), Q1 / SGRQ-C Questionnaire - Total Score, CFB (Change from baseline), Q3 / SGRQ-C Questionnaire - Total Score, Observed, Max / SGRQ-C Questionnaire - Total Score, Observed, Mean ± SD / SGRQ-C Questionnaire - Total Score, Observed, Median / SGRQ-C Questionnaire - Total Score, Observed, Min / SGRQ-C Questionnaire - Total Score, Observed, Q1 / SGRQ-C Questionnaire - Total Score, Observed, Q3: Week 16, 150 mg BID
# Text: The SGRQ-C questionnaire was developed from the SGRQ which was designed to measure health impairment in patients with asthma and COPD. The SGRQ-C is a shorter version (40 items compared with 50 items in SGRQ) derived from the original version following detailed analysis of data from large studies in COPD. The FDA has stated that the SGRQ-C is acceptable for use as either a co-primary endpoint or as a secondary endpoint providing supporting evidence of efficacy in a clinical trial. In this study, assessment of SGRQ-C was a secondary endpoint.
# The SGRQ-C total score is made up of three components: (1) symptoms frequency and severity of symptoms; (2) activity effect of disease on common daily physical activities; and (3) impacts psychosocial effects of the disease.
# The threshold for a clinically significant difference between groups of participants and for changes within groups of participants was four units.
# [2] = for COPD Assessment - Total Score, CFB (Change from baseline), Max / COPD Assessment - Total Score, CFB (Change from baseline), Mean ± SD / COPD Assessment - Total Score, CFB (Change from baseline), Median / COPD Assessment - Total Score, CFB (Change from baseline), Min / COPD Assessment - Total Score, CFB (Change from baseline), Q1 / COPD Assessment - Total Score, CFB (Change from baseline), Q3 / COPD Assessment - Total Score, Observed, Max / COPD Assessment - Total Score, Observed, Mean ± SD / COPD Assessment - Total Score, Observed, Median / COPD Assessment - Total Score, Observed, Min / COPD Assessment - Total Score, Observed, Q1 / COPD Assessment - Total Score, Observed, Q3: Week 16, 150 mg BID
# Text: The CAT is a participant-completed instrument that can quantify the impact of COPD on the participant's health. It complements existing approaches to assessing COPD, such as FEV1 measurement.
# The CAT has a scoring range of 0-40 (0 to 5 on 8 questions) with higher numbers indicating more severe symptoms.
# [3] = 150 mg BID; participants with ALS and EADs; cited from earlier work
# [4] = Phase III, participants with ALS; cited from earlier work
# [5] = <50% AEC reduction at Week 16 (N = 4)
# [6] = >=50% AEC reduction at Week 16 (N = 3)
smiles,measurement,setting,value
"CCCN[C@@H]1CCc2nc(N)sc2C1 [Dexpramipexole, (6R)-2-amino-4,5,6,7-tetrahydro-6-(propylamino)benzothiazole]","SGRQ-C total score, decrease compared to baseline","[1]; AECR≥0.5 patients, 16 weeks",12.08 points
same,"SGRQ-C Questionnaire - Total Score, CFB (Change from baseline), Max",[1]; [5],3.9
same,"SGRQ-C Questionnaire - Total Score, CFB (Change from baseline), Mean ± SD",[1]; [5],−4.15 ± 6.817
same,"SGRQ-C Questionnaire - Total Score, CFB (Change from baseline), Median",[1]; [5],−5.18
same,"SGRQ-C Questionnaire - Total Score, CFB (Change from baseline), Min",[1]; [5],−10.1
same,"SGRQ-C Questionnaire - Total Score, CFB (Change from baseline), Q1",[1]; [5],−9.8
same,"SGRQ-C Questionnaire - Total Score, CFB (Change from baseline), Q3",[1]; [5],1.5
same,"SGRQ-C Questionnaire - Total Score, Observed, Max",[1]; [5],63.2
same,"SGRQ-C Questionnaire - Total Score, Observed, Mean ± SD",[1]; [5],45.45 ± 19.893
same,"SGRQ-C Questionnaire - Total Score, Observed, Median",[1]; [5],50.64
same,"SGRQ-C Questionnaire - Total Score, Observed, Min",[1]; [5],17.3
same,"SGRQ-C Questionnaire - Total Score, Observed, Q1",[1]; [5],32.1
same,"SGRQ-C Questionnaire - Total Score, Observed, Q3",[1]; [5],58.8
same,"SGRQ-C Questionnaire - Total Score, CFB (Change from baseline), Max",[1]; [6],−6.2
same,"SGRQ-C Questionnaire - Total Score, CFB (Change from baseline), Mean ± SD",[1]; [6],−12.08 ± 5.544
same,"SGRQ-C Questionnaire - Total Score, CFB (Change from baseline), Median",[1]; [6],−12.76
same,"SGRQ-C Questionnaire - Total Score, CFB (Change from baseline), Min",[1]; [6],−17.2
same,"SGRQ-C Questionnaire - Total Score, CFB (Change from baseline), Q1",[1]; [6],−17.2
same,"SGRQ-C Questionnaire - Total Score, CFB (Change from baseline), Q3",[1]; [6],−6.2
same,"SGRQ-C Questionnaire - Total Score, Observed, Max",[1]; [6],45.0
same,"SGRQ-C Questionnaire - Total Score, Observed, Mean ± SD",[1]; [6],40.39 ± 7.250
same,"SGRQ-C Questionnaire - Total Score, Observed, Median",[1]; [6],44.09
same,"SGRQ-C Questionnaire - Total Score, Observed, Min",[1]; [6],32.0
same,"SGRQ-C Questionnaire - Total Score, Observed, Q1",[1]; [6],32.0
same,"SGRQ-C Questionnaire - Total Score, Observed, Q3",[1]; [6],45.0
same,"CAT total score, decrease compared to baseline","[2]; AECR≥0.5 patients, week 16",8.7 points
same,"COPD Assessment - Total Score, CFB (Change from baseline), Max",[2]; [5],0
same,"COPD Assessment - Total Score, CFB (Change from baseline), Mean ± SD",[2]; [5],−1.8 ± 1.50
same,"COPD Assessment - Total Score, CFB (Change from baseline), Median",[2]; [5],−2.0
same,"COPD Assessment - Total Score, CFB (Change from baseline), Min",[2]; [5],−3
same,"COPD Assessment - Total Score, CFB (Change from baseline), Q1",[2]; [5],−3
same,"COPD Assessment - Total Score, CFB (Change from baseline), Q3",[2]; [5],−1
same,"COPD Assessment - Total Score, Observed, Max",[2]; [5],24
same,"COPD Assessment - Total Score, Observed, Mean ± SD",[2]; [5],17.5 ± 8.27
same,"COPD Assessment - Total Score, Observed, Median",[2]; [5],20.0
same,"COPD Assessment - Total Score, Observed, Min",[2]; [5],6
same,"COPD Assessment - Total Score, Observed, Q1",[2]; [5],12
same,"COPD Assessment - Total Score, Observed, Q3",[2]; [5],24
same,"COPD Assessment - Total Score, CFB (Change from baseline), Max",[2]; [6],−8
same,"COPD Assessment - Total Score, CFB (Change from baseline), Mean ± SD",[2]; [6],−8.7 ± 1.15
same,"COPD Assessment - Total Score, CFB (Change from baseline), Median",[2]; [6],−8.0
same,"COPD Assessment - Total Score, CFB (Change from baseline), Min",[2]; [6],−10
same,"COPD Assessment - Total Score, CFB (Change from baseline), Q1",[2]; [6],−10
same,"COPD Assessment - Total Score, CFB (Change from baseline), Q3",[2]; [6],−8
same,"COPD Assessment - Total Score, Observed, Max",[2]; [6],23
same,"COPD Assessment - Total Score, Observed, Mean ± SD",[2]; [6],16.3 ± 5.86
same,"COPD Assessment - Total Score, Observed, Median",[2]; [6],14.0
same,"COPD Assessment - Total Score, Observed, Min",[2]; [6],12
same,"COPD Assessment - Total Score, Observed, Q1",[2]; [6],12
same,"COPD Assessment - Total Score, Observed, Q3",[2]; [6],23
same,safety profile,[3],favorable safety profile
same,absolute eosinophil count (AEC),[4],"substantial, durable, and targeted reduction"
same,efficacy in ALS,[4],failed to demonstrate efficacy
